Legend:
A673 (Ewing's Sarcoma) [1] = assay: Bliss excess, mean over the matrix (fraction); higher = more synergy
In short: (§1)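 Cell lines in DMEM/F12 or RPMI with 10% FBS were plated in 1536-well plates, held 24 hours at 37°C, 5% CO2, then given two-drug dose matrices for 72 hours (DMSO typically 0.2%). Viability was read by CellTiter-Glo 2.0 luminescence and scaled as inhibition from 0 (vehicle wells) to 1 (blank wells). Combination Emax is the second-highest inhibition in the matrix; Bliss excess is observed combination effect minus expected EA + EB − EA·EB, EA and EB being single-agent effects.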

[2] = test system: BE-13 (T-Lymphoblastic Leukemia); assay: as above
In short: as §1

CAL-72 (Osteosarcoma) [3] = assay: as above
In short: as §1

[4] = test system: ESS-1 (Other Solid Carcinomas); assay: as above
In short: as §1

EW-11 (Ewing's Sarcoma) [5] = assay: as above
In short: as §1

GAMG (Glioblastoma) [6] = assay: as above
In short: as §1

[7] = test system: HH (T-Cell Non-Hodgkin's Lymphoma); assay: as above
In short: as §1

[8] = test system: HuCCT1 (Biliary Tract Carcinoma); assay: as above
In short: as §1

KS-1 (Glioblastoma) [9] = assay: as above
In short: as §1

[10] = test system: KYAE-1 (Esophageal Adenocarcinoma); assay: as above
In short: as §1

[11] = test system: LNZTA3WT4 (Low Grade Glioma); assay: as above
In short: as §1

LOXIMVI (Melanoma) [12] = assay: as above
In short: as §1

[13] = test system: LS-123 (Colorectal Carcinoma); assay: as above
In short: as §1

MPP-89 (Mesothelioma) [14] = assay: as above
In short: as §1

[15] = test system: NCI-H524 (Small Cell Lung Carcinoma); assay: as above
In short: as §1

[16] = test system: OVCAR-5 (Ovarian Carcinoma); assay: as above
In short: as §1

[17] = test system: SAS (Oral Cavity Carcinoma); assay: as above
In short: as §1

[18] = test system: SNU-16 (Gastric Carcinoma); assay: as above
In short: as §1

[19] = test system: SNU-449 (Hepatocellular Carcinoma); assay: as above
In short: as §1

[20] = test system: SW1710 (Bladder Carcinoma); assay: as above
In short: as §1

[21] = test system: TGBC1TKB (Biliary Tract Carcinoma); assay: as above
In short: as §1

[22] = test system: WSU-NHL (B-Cell Non-Hodgkin's Lymphoma); assay: as above
In short: as §1

[23] = test system: YAPC (Pancreatic Carcinoma); assay: as above
In short: as §1

A673 (Ewing's Sarcoma) [24] = assay: combination Emax (second highest fraction inhibited in the dose matrix, 72 h); higher = more inhibition; extreme values may be limits of the assay
In short: as §1

[25] = test system: BE-13 (T-Lymphoblastic Leukemia); assay: as above
In short: as §1

CAL-72 (Osteosarcoma) [26] = assay: as above
In short: as §1

[27] = test system: ESS-1 (Other Solid Carcinomas); assay: as above
In short: as §1

EW-11 (Ewing's Sarcoma) [28] = assay: as above
In short: as §1

GAMG (Glioblastoma) [29] = assay: as above
In short: as §1

[30] = test system: HH (T-Cell Non-Hodgkin's Lymphoma); assay: as above
In short: as §1

[31] = test system: HuCCT1 (Biliary Tract Carcinoma); assay: as above
In short: as §1

KS-1 (Glioblastoma) [32] = assay: as above
In short: as §1

[33] = test system: KYAE-1 (Esophageal Adenocarcinoma); assay: as above
In short: as §1

[34] = test system: LNZTA3WT4 (Low Grade Glioma); assay: as above
In short: as §1

LOXIMVI (Melanoma) [35] = assay: as above
In short: as §1

[36] = test system: LS-123 (Colorectal Carcinoma); assay: as above
In short: as §1

MPP-89 (Mesothelioma) [37] = assay: as above
In short: as §1

[38] = test system: NCI-H524 (Small Cell Lung Carcinoma); assay: as above
In short: as §1

[39] = test system: OVCAR-5 (Ovarian Carcinoma); assay: as above
In short: as §1

[40] = test system: SAS (Oral Cavity Carcinoma); assay: as above
In short: as §1

[41] = test system: SNU-16 (Gastric Carcinoma); assay: as above
In short: as §1

[42] = test system: SNU-449 (Hepatocellular Carcinoma); assay: as above
In short: as §1

[43] = test system: SW1710 (Bladder Carcinoma); assay: as above
In short: as §1

[44] = test system: TGBC1TKB (Biliary Tract Carcinoma); assay: as above
In short: as §1

[45] = test system: WSU-NHL (B-Cell Non-Hodgkin's Lymphoma); assay: as above
In short: as §1

[46] = test system: YAPC (Pancreatic Carcinoma); assay: as above
In short: as §1
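For Bliss excess, mean over the matrix in this document: after 72 h of two-drug dosing.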

For C=CCn1c(=O)c2cnc(Nc3ccc(N4CCN(C)CC4)cc3)nc2n1-c1cccc(C(C)(C)O)n1 [AZD1775] + CCc1c2c(nc3ccc(O)cc13)-c1cc3c(c(=O)n1C2)COC(=O)[C@]3(O)CC [SN-38] (first compound max 1 µM, partner max 0.3 µM), the Bliss excess (A673 (Ewing's Sarcoma) [1]) was -0.0188, the Bliss excess [2] was -0.0186 and the Bliss excess (CAL-72 (Osteosarcoma) [3]) was 0.017. It also gave a Bliss excess [4] of -0.0011, a Bliss excess (EW-11 (Ewing's Sarcoma) [5]) of -0.113 and a Bliss excess (GAMG (Glioblastoma) [6]) of 0.001. It also gave a Bliss excess [7] of -0.0696, a Bliss excess [8] of -0.0281 and a Bliss excess (KS-1 (Glioblastoma) [9]) of -0.0389. It also gave a Bliss excess [10] of -0.0013, a Bliss excess [11] of -0.0414 and a Bliss excess (LOXIMVI (Melanoma) [12]) of -0.0862. It also gave a Bliss excess [13] of -0.0581, a Bliss excess (MPP-89 (Mesothelioma) [14]) of 0.0163 and a Bliss excess [15] of -0.0355. For the same molecule, the Bliss excess [16] was -0.0215, the Bliss excess [17] was 0.0334 and the Bliss excess [18] was -0.0475. It also gave a Bliss excess [19] of -0.0298, a Bliss excess [20] of 0.0053 and a Bliss excess [21] of -0.0491. The Bliss excess [22] was -0.0306, the Bliss excess [23] was -0.0599 and the “combination Emax” value (A673 (Ewing's Sarcoma) [24]) was 0.973. The “combination Emax” value [25] was 1, the “combination Emax” value (CAL-72 (Osteosarcoma) [26]) was 0.838 and the “combination Emax” value [27] was 1. The “combination Emax” value (EW-11 (Ewing's Sarcoma) [28]) was 0.723, the “combination Emax” value (GAMG (Glioblastoma) [29]) was 0.916 and the “combination Emax” value [30] was 0.567. For the same molecule, the “combination Emax” value [31] was 0.809, the “combination Emax” value (KS-1 (Glioblastoma) [32]) was 0.52 and the “combination Emax” value [33] was 0.267. For the same molecule, the “combination Emax” value [34] was 0.802, the “combination Emax” value (LOXIMVI (Melanoma) [35]) was 0.863 and the “combination Emax” value [36] was 0.828. For the same molecule, the “combination Emax” value (MPP-89 (Mesothelioma) [37]) was 0.769, the “combination Emax” value [38] was 0.76 and the “combination Emax” value [39] was 0.77. The “combination Emax” value [40] was 1, the “combination Emax” value [41] was 0.989 and the “combination Emax” value [42] was 0.61. For the same molecule, the “combination Emax” value [43] was 0.533, the “combination Emax” value [44] was 0.426 and the “combination Emax” value [45] was 0.999. The “combination Emax” value [46] was 0.722.
